According to patent publication US20240059740A1, “CYCLIC PEPTIDES AND USES THEREOF” (PRE[…] INC., priority 2020, published 2024):
Residues, ends and D or L forms follow the SMILES beside them.

Columns and labels:
U251 cells = experiment: MTT assay for cytotoxicity, U251; format: cell-based, human; conditions: 48 hours, % viability of control
Description: The MTT (3-[4.5-dimethylthiazol-2-yl]-2,5═diphenyl tetrazolium bromide) assay is based on a process undertaken by living cells, involving the conversion of MTT into formazan crystals. This assay is used routinely to measure the in vitro cytotoxic effects of drugs on cell lines or primary patient cells (Van Meerloo et al., 2011). The MTT assay measures mitochondrial activity, so in some instances where the peptide activates mitochondrial response, the results appear to increase the number of cells present i.e. >100% cell viability.
The aim of this experiment was to identify peptide concentrations that are active on living cells and cell viability was assessed.
The glioblastoma multiforme (GBM) cell lines used were U87 and U251 cells and patient derived cells grown as oncospheres (081024 cells). Human adherent GBM cell lines U87 and U251 were cultured in RPMI medium (Life Technologies Melbourne Australia) supplemented with 5% v/v FBS, 100 U/mL penicillin and 100 μg/mL streptomycin. 081024 cells were cultrured in NeuroCult™ NS-A Proliferation medium with 0.2% (v/v) heparin, 20 ng/mL EGF and 10 ng/mL FGF.
8×10^3 U87 and 7×10^3 U251 cells per well were seeded in 96 well plates in 200 μL serum-containing RPMI medium and incubated at 37° C. with 5% CO2 for 24 hours. After one wash with serum-free medium, 100 μL serum-free medium with different concentration of peptide SEQ ID NO:1 was added to each well. After 48 hours incubation, 10 μL of 0.5 mg/mL MTT was added and incubated for 2 hours at 37° C. Formazan crystals were dissolved by 200 μL/well dimethyl sulfoxide (DMSO) and shaking for 15 minutes. The UV absorbance was read with an iMark™ microplate absorbance reader at 595 nm (Bio-Rad Laboratories). Background absorbance was subtracted and results expressed as the % viability of control (untreated cells).

U87 cells = experiment: BME cell invasion assay, U87; format: cell-based, human; conditions: 24 h
Protocol: To assess whether the ability of SEQ ID NO.1 to inhibit MMP-2 activity and, to a lesser extent, reduce the production of matrix proteinases and downregulate the expression of EMT markers, was of functional consequence in reducing the invasiveness of the GBM cells, the ability of the peptide was tested at the concentrations of 1, 10 and 100 μM (none of which are toxic to cells) to inhibit invasion of the GBM cells through a basement membrane. This assay, described in more detail below, is an in vitro surrogate for measurement of the in vivo invasion by tumour cells of their environment.
The cell invasion assay employs a simplified Boyden chamber-like design that consists of two chambers separated by a filter (an 8 μm polycarbonate (PC) membrane) coated with basement membrane or different extracellular matrix components. The cell suspension is placed in the top chamber and incubated in the presence of test media containing specific chemo-attractants in the bottom chamber. Cells migrate from the top chamber to the bottom of the filter by degrading the coating over the filter pores. Detection of cell invasion is quantified using Calcein AM. Cell dissociation/Calcein AM solution is placed in the bottom chamber to dissociate the migrating cells from the filter. Calcein AM is internalized by the cells, and intracellular-esterases cleave the aceto-methylester (AM) moiety. Free Calcein fluoresces brightly and is used to quantitate the number of cells that have invaded or migrated by comparison with a standard curve (In Vitro Technologies Pty Ltd, (https://lifescience.invitro.com.au/brands/r-and-d-systems/).
The filter was coated with PathClear® growth factor reduced BME. The selected peptides were applied to the cells in both upper and lower wells to make sure the concentration of peptides were the same and the chemoattractant was serum at a concentration of 2% (for adherent U87 & U251 cells) or growth factor mix required in the medium (for non- adherent, 081024 oncospheres).
Cell invasion was determined using CultureCoat® 96 Well Medium BME Cell Invasion assay. Briefly, the cells were pre-starved 24 h before harvest. Then seeding 25,000 per well of cell in the upper chamber with serum free medium together different concentration of peptide. The bottom chamber also added different concentration of peptides with 2% (V/V) serum for GBM adherent cells or growth factor mix for neurosphere cells as chemoattractant. After 24 h incubation, the invading cells were measured by Calcein AM and calculated based on standard curve.
The results are shown in Table 12, the results are expressed as % inhibition.

What does the source list for `CC(C)C[C@@H]1NC(=O)[C@H](C)NC(=O)[C@@H](NC(=O)[C@@H]2CCCN2C(=O)[C@@H](N)CC(C)C)CSSC(C)(C)CNC(=O)CC[C@@H](C(=O)N[C@@H](CCCNC(=N)N)C(N)=O)NC(=O)[C@H](CC(=O)O)NC(=O)[C@H](CC(N)=O)NC1=O` [SEQ ID NO: 1, Leu-Pro-c(SSA*-Ala-Leu-Asn-Asp-Glu)-Arg-NH2] (HELM PEPTIDE1{L.P.C.A.L.N.D.E.R.[am]}|CHEM1{[CC(C)(CN[*:2])S[*:1]]}$PEPTIDE1,CHEM1,3:R3-1:R1|PEPTIDE1,CHEM1,8:R3-1:R2$$$V2.0; N-terminus assumed)?
Cell viability (U251 cells; 1 μM): 100.7%; Cell viability (U251 cells; 5 μM): 101.7%; Cell viability (U251 cells; 10 μM): 100.4%; Cell viability (U251 cells; 50 μM): 107.3%; Cell viability (U251 cells; 100 μM): 105.5%; Cell viability (U251 cells; 500 μM): 93.84%; Cell viability (U251 cells; 1 mM): 83.99%; Invasion Inhibition Index (%) (U87 cells; 1 μM, listed as SEQ ID NO. 1): 7.6%; Invasion Inhibition Index (%) (U87 cells; 1 μM, listed as SEQ ID NO.1): lower inhibition index compared to Chlorotoxin; Invasion Inhibition Index (%) (U87 cells; 10 μM): 15.5%; Invasion Inhibition Index (%) (U87 cells; 100 μM): 24.3%
